From patent US11395824B2, “5-HT2C receptor agonists and compositions and methods of use” (Arena Pharmaceuticals, Inc., priority 2015, dated 2022)
Where two headings read alike, the source gives them in different places.

Experiments:
[1] = target: T1, 5-HT2B receptor (Homo sapiens, UniProt P41595); test: IP accumulation assay; type: cell-based; details: [3H]inositol phosphates, read-out: IP Accumulation EC50 (nM) 2B
[2] = target: T2, 5-HT2A receptor (Homo sapiens, UniProt P28223); test: IP accumulation assay; type: cell-based; details: [3H]inositol phosphates, read-out: IP Accumulation EC50 (nM) 2A
[3] = target: T3, 5-HT2C receptor (Homo sapiens, UniProt P28335); test: IP accumulation assay; type: cell-based; details: HEK293 cells expressing recombinant 5-HT2C receptors, [3H]inositol phosphates, 2 h at 37° C.
T3 construct: expressed in transfected cells; host or cells: HEK293
T3 sequence (P28335 33-458): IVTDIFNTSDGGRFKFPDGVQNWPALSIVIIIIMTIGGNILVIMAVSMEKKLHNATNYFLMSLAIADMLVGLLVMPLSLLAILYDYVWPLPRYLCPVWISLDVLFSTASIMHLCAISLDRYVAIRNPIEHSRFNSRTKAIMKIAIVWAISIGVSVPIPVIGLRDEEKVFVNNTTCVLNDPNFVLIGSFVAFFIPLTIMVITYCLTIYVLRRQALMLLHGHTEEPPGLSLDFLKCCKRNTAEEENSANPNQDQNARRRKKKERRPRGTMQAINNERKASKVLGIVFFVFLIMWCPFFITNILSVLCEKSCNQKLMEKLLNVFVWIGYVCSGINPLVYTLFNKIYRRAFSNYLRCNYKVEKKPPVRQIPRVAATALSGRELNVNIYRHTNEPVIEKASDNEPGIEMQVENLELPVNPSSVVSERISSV
Experimental: HEK293 cells expressing recombinant 5-HT2C receptors were added to sterile poly-D-lysine-coated 96-well microtiter plates (35,000 cells/well) and labeled with 0.6 µCi/well of [^3H]inositol in myoinositol-free DMEM for 18 h. Unincorporated [^3H]inositol was removed by aspiration and replaced with fresh myoinositol-free DMEM supplemented with LiCl (10 mM final) and pargyline (10 μM final). Serially diluted test compounds were then added and incubation was conducted for 2 h at 37° C. Incubations were then terminated by lysing cells with the addition of ice-cold 0.1 M formic acid followed by freezing at −80° C. After thawing, total [^3H]inositol phosphates were resolved from [^3H]inositol using AG1-X8 ion exchange resin (Bio-Rad) and [^3H]inositol phosphates were measured by scintillation counting using a Perkin Elmer TopCount® scintillation counter. All EC50 determinations were performed using 10 different concentrations and triplicate determinations were made at each test concentration.

[4] = target: T3, 5-HT2C receptor; test: Radioligand binding assay with [125I]DOI; details: competition with [125I]DOI, membranes of HEK293 cells expressing recombinant 5-HT2C receptors; read-out: DOI Binding Ki (nM) 2C
Experimental: For the compounds of Table A, the following procedure was used. HEK293 cells stably expressing recombinant 5-HT2C receptors were harvested, suspended in ice-cold phosphate buffered saline, pH 7.4 (PBS), and then centrifuged at 48,000 g for 20 min at 4° C. The resulting cell pellet was then re-suspended in wash buffer containing 20 mM HEPES, pH 7.4 and 0.1 mM EDTA, homogenized on ice using a Brinkman Polytron, and centrifuged (48,000 g for 20 min at 4° C.). The pellet was then resuspended in 20 mM HEPES, pH 7.4, homogenized on ice, and centrifuged (48,000 g for 20 min at 4° C.). Crude membrane pellets were stored at −80° C. until used for radioligand binding assays.
For the compounds of Table A, the following procedure was used. […] Experiments comprised addition of 95 μL of assay buffer (20 mM HEPES, pH 7.4, 10 mM MgCl2), 50 μL of membranes, 50 μL of radioligand stock, and 5 μL of test compound diluted in assay buffer to 96-well microtiter plates, which were then incubated for 1 h at room temperature. Assay incubations were terminated by rapid filtration through PerkinElmer F/C filtration plates under reduced pressure using a 96-well Packard filtration apparatus, followed by washing three times with ice cold assay buffer. Plates were then dried at 45° C. for a minimum of 2 h. Finally, 25 μL of BetaScint™ scintillation cocktail was added to each well and the plates were counted in a Packard TopCount® scintillation counter. In each competition study, test compounds were dosed at ten concentrations with triplicate determinations at each test concentration.

[5] = target: T1, 5-HT2B receptor; test: Radioligand binding assay with [125I]DOI; details: competition with [125I]DOI, read-out: DOI Binding Ki (nM) 2B
[6] = target: T2, 5-HT2A receptor; test: Radioligand binding assay with [125I]DOI; details: competition with [125I]DOI, read-out: DOI Binding Ki (nM) 2A
[7] = reports that led to withdrawal by the FDA in 1998; cited from earlier work
[8] = cited from earlier work
[9] = cited from earlier work; remark: listed apart in the source
[10] = 10 mg BID, patients with type 2 diabetes, cited from earlier work
[11] = patients without diabetes, cited from earlier work
[12] = pivotal phase 3 program, treated for up to two years
[13] = patients with type 2 diabetes, BELVIQ BID
[14] = patients without type 2 diabetes

T2 sequence (P28223 whole entry): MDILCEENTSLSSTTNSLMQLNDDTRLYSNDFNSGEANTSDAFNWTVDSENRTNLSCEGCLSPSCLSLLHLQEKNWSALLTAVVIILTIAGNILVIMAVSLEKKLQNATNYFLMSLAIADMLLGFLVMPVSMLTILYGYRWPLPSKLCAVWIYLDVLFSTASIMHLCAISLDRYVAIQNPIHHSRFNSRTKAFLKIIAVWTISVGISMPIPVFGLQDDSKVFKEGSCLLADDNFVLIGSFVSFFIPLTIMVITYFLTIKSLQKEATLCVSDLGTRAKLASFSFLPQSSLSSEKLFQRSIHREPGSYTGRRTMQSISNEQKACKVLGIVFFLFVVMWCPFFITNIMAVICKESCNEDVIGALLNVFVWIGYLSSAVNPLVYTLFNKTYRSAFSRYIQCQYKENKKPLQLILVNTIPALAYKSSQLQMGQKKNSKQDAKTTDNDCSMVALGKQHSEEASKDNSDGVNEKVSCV
T1 sequence (P41595 whole entry): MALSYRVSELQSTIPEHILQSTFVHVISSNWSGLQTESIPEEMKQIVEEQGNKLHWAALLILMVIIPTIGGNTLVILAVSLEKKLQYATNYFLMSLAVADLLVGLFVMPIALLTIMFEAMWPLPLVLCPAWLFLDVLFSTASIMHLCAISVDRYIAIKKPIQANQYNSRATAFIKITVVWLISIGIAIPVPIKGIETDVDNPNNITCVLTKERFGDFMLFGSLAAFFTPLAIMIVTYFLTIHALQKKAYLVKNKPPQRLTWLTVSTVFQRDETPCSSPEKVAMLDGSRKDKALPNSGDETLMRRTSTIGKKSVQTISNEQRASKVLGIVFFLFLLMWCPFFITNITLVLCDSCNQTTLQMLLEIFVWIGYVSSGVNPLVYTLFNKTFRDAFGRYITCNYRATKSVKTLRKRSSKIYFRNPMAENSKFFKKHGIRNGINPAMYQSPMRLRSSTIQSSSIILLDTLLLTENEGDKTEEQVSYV

Work on `CCc1ccc2c3c1C1(CC1)C1(CC1)CC3CCNC2` (stereo not shown) [Compound 101, 8′-ethyl-2′,3′,4′,4a′,5′-pentahydro-1′H-dispiro[cyclopropane-1,6′-cyclopropane-7′,1″- naphtho[1,8-cd]azepine]] yielded an EC50 [1] greater than 100000 nM, an EC50 [2] greater than 100000 nM and an EC50 [3] of 2040 nM.

`CC1(C)CC2CCNCc3cccc(c32)C12CC2` (stereo not shown) [Compound 102, 6′,6′-dimethyl-2′,3′,4′,4a′,5′,6-hexahydro-1′H-spiro[cyclopropane-1,7′-naphtho[1,8-cd]azepine]] gave a Ki [4] of 10.3 nM, a Ki [5] of 255 nM and a Ki [6] of 236 nM.

For `Brc1ccc2c3c1CCCC3CCNC2` (stereo not shown) [Compound 106, 8-bromo-1,2,3,4,4a,5,6,7-octahydronaphtho[1,8-cd]azepine], the Ki [4] was 105 nM, the Ki [5] was 125 nM and the Ki [6] was 244 nM.

In the case of `CC1(C)CC2CCNCc3ccc(F)c(c32)C12CC2` (stereo not shown) [Compound 119, 8′-fluoro-6′,6′-dimethyl-2′,3′,4′,4a′,5′,6′-hexahydro-1′H-spiro[cyclopropane-1,7′-naphtho[1,8-cd]azepine]], the EC50 [1] is reported as greater than 100000 nM, the EC50 [2] is reported as greater than 100000 nM and the EC50 [3] is reported as 391 nM.

For `CC1(C)c2cccc3c2C(CCNC3)CC12CC2` (stereo not shown) [Compound 121, 7,7′-dimethyl-2′,3′,4′,4a′,5′,7′-hexahydro-1′H-spiro[cyclopropane-1,6′-naphtho[1,8-cd]azepine]], the Ki [4] was 27.6 nM, the EC50 [1] was greater than 100000 nM and the Ki [5] was 634 nM. For the same molecule, the EC50 [2] was greater than 100000 nM, the Ki [6] was 423 nM and the EC50 [3] was 222 nM.

With `c1cc2c3c(c1)C1(CCC3CCNC2)CC1` (stereo not shown) [Compound 128, 2′,3′,4′,4a′,5′,6′-hexahydro-1′H-spiro[cyclopropane-1,7′-naphtho[1,8-cd]azepine]] the EC50 [1] was 284 nM, the EC50 [2] was greater than 100000 nM and the EC50 [3] was 108 nM.

For `c1cc2c3c(c1)C1(CC1)C1(CC1)CC3CCNC2` (stereo not shown) [Compound 130, 2′,3′,4′,4a′,5′-pentahydro-1′H-dispiro[cyclopropane-1,6′-cyclopropane-7′,1″- naphtho[1,8-cd]azepine]], the Ki [4] was 1.96 nM, the EC50 [1] was 967 nM and the Ki [5] was 75.7 nM. It also gave an EC50 [2] of 465 nM, a Ki [6] of 34.4 nM and an EC50 [3] of 5.21 nM.

In the case of `c1cc2c3c(c1)C1(CCC1)CCC3CCNC2` (stereo not shown) [Compound 131, 2′,3′,4′,4a′,5′,6′-hexahydro-1′H-spiro[cyclobutane-1,7′-naphtho[1,8-cd]azepine]], the EC50 [1] is reported as greater than 100000 nM, the EC50 [2] is reported as greater than 100000 nM and the EC50 [3] is reported as 83.5 nM.

`CC1(C)CCC2CCNCc3cccc1c32` (stereo not shown) [Compound 135, 7,7-dimethyl-1,2,3,4,4a,5,6,7-octahydronaphtho[1,8-cd]azepine] showed a Ki [4] of 69.6 nM, a Ki [5] of 395 nM and a Ki [6] of 458 nM.

In the case of `CCN[C@@H](C)Cc1cccc(C(F)(F)F)c1` [d-fenfluramine], the “share of patients with reported cardiac valve defects” value [7] is listed as “up to one third”.

In the case of `C[C@H]1CNCCc2ccc(Cl)cc21` [lorcaserin, (R)-8-chloro-1-methyl-2,3,4,5-tetrahydro-1H-3-benzazepine], the “share of excess body weight lost” value ([8]; first phase 3 trial, based on a normal BMI of 25) is listed as “about one-third”, the “risk of cardiac valvulopathy” value ([8]; phase 3 program) is listed as “did not increase the risk of cardiac valvulopathy” and the “proportion of patients that achieved at least 5% weight loss” value [8, 12] is listed as “About two-thirds”. The “proportion of patients that achieved at least 10% weight loss” value [8, 12] was “over one-third”, the “average weight lost as share of their weight” value ([8]; pivotal phase 3 program) was “about 8%” and the “average weight loss, top quartile of patients” value ([8]; second phase 3 trial) was 35 pounds. The “average weight loss, top quartile of patients, of body weight” value ([8]; second phase 3 trial) was 16%, the “patients who decreased the total daily dose of medications used for treatment of dyslipidemia” value [9, 13] was 5.5% and the “patients who increased use of medications used for treatment of dyslipidemia” value [9, 13] was 3.1%. For the same molecule, the “decrease of mean daily doses of sulfonylureas and thiazolidinediones” value ([9]; patients with type 2 diabetes, BELVIQ groups) was 16-24%, the “patients who decreased total daily dose of antihypertensive medications” value ([9]; patients with type 2 diabetes) was 8.2% and the “patients who increased total daily dose of antihypertensive medications” value ([9]; patients with type 2 diabetes) was 6.6%. For the same molecule, the “patients who decreased the total daily dose of medications used for treatment of dyslipidemia” value [9, 14] was 1.3%, the “patients who decreased total daily dose of antihypertensive medications” value [9, 14] was 2.2% and the “patients who increased total daily dose of antihypertensive medications” value [9, 14] was 2.2%. For the same molecule, the “patients who increased use of medications used for treatment of dyslipidemia” value [9, 14] was 2.6%, the “reduction in HbA1c” value ([10]; placebo 0.4%) was 0.9% and the “reduction in fasting glucose” value ([10]; placebo 11.9%) was 27.4%. For the same molecule, the “change of insulin resistance (HOMA-IR)” value ([11]; one study, placebo −0.2) was −0.4, the “change of fasting insulin” value ([11]; one study, placebo −1.3 μIU/mL) was −3.3 μIU/mL and the “change of mean fasting glucose” value ([11]; placebo +0.6 mg/dL) was -0.2 mg/dL.
